Reference: patent US7429660B2, “ATM inhibitors” (Kudos Pharmaceuticals Limited, priority 2003, dated 2008)

target: T1, ATM protein immunoprecipitated from HeLa cell nuclear extract (Homo sapiens, UniProt Q13315); test: In vitro ATM inhibition assay (phosphorylation of GSTp53N66 on serine 15, chemiluminescent detection); assay type: biochemical; conditions: read-out: IC50 values (the concentration at which 50% of the enzyme activity is inhibited), ATM inhibition; also: tested normally from 100 µM down to 0.1 nM
T1 construct: ATM protein was immunoprecipitated from HeLa cell nuclear extract; endogenous in cells; host or cells: HeLa cell nuclear extract (immunoprecipitated with rabbit polyclonal anti-ATM antiserum)
T1 sequence (Q13315 whole entry): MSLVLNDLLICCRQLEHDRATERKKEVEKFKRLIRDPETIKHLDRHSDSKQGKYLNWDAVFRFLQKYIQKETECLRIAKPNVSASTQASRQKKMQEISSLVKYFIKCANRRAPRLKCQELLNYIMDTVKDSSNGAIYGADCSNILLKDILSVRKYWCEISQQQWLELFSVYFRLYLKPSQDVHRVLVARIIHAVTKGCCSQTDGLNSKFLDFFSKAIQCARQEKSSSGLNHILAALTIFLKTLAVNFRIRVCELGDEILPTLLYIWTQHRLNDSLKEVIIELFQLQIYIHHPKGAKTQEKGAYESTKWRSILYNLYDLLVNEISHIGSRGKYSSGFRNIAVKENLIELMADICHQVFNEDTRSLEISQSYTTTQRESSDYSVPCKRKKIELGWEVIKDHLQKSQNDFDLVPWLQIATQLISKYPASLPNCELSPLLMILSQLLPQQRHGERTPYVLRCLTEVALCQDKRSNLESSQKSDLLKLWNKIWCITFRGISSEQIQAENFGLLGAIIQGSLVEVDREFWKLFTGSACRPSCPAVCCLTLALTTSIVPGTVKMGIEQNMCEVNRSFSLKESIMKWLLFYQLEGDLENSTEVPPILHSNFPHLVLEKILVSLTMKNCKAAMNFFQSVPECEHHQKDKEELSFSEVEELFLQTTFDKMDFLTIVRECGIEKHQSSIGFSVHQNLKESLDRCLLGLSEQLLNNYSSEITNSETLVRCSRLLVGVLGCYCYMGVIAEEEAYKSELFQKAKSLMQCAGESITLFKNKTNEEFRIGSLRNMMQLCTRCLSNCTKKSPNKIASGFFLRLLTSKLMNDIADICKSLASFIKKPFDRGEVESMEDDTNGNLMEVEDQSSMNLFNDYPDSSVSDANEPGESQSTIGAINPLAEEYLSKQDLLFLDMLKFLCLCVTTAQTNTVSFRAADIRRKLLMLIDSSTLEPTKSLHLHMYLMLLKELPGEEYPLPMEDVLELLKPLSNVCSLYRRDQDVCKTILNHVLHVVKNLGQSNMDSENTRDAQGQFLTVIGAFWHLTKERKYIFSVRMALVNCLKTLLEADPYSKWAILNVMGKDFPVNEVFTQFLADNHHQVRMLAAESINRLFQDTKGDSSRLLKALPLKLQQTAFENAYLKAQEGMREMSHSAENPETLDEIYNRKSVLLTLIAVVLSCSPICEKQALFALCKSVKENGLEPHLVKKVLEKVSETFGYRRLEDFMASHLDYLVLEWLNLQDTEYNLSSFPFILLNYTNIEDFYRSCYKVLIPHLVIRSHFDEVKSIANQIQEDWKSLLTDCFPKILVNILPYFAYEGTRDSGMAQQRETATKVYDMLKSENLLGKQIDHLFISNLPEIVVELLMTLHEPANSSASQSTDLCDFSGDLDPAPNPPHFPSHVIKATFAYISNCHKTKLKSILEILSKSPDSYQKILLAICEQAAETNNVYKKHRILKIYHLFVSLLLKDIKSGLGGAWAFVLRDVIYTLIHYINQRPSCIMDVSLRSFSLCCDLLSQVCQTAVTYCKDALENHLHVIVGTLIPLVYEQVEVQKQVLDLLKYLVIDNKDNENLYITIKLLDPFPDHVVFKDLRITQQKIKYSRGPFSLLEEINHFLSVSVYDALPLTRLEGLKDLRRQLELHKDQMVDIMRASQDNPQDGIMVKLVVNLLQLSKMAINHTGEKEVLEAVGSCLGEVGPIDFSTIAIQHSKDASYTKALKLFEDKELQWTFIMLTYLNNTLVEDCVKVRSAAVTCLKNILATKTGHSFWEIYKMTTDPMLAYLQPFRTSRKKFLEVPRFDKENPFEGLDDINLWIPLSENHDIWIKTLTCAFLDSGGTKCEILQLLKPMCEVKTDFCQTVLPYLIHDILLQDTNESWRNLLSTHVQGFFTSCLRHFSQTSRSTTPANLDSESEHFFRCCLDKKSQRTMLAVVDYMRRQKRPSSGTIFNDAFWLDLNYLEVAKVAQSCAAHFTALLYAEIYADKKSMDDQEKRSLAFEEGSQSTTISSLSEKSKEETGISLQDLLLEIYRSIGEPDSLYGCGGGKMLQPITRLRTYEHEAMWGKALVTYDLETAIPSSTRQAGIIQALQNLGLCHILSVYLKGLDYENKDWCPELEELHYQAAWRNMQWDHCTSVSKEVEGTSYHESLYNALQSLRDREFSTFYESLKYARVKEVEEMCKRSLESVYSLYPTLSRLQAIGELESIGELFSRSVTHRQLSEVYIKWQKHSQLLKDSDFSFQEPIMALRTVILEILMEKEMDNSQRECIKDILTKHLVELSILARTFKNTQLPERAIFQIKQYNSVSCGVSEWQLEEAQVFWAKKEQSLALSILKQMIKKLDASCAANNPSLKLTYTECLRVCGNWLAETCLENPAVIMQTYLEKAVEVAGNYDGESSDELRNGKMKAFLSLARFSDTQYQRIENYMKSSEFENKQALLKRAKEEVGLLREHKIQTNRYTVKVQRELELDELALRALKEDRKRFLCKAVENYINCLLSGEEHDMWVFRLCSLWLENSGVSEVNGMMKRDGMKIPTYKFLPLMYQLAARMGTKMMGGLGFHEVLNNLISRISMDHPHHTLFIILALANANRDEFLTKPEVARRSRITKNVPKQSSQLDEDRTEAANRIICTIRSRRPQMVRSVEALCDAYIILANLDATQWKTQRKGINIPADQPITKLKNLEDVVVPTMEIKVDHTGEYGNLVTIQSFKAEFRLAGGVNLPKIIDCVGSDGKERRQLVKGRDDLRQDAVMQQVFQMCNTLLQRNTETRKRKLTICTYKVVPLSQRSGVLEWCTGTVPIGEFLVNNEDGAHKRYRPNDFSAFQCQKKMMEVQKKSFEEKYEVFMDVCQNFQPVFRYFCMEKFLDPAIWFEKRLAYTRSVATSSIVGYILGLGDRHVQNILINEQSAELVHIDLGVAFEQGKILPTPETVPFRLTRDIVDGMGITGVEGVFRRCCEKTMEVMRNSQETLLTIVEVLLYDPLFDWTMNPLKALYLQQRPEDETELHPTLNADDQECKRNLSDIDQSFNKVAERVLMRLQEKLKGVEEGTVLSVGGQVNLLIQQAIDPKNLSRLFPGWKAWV
Method: In order to assess the inhibitory action of the compounds against ATM in vitro, the following assay was used to determine IC50 values. ATM protein was immunoprecipitated from HeLa cell nuclear extract using rabbit polyclonal anti-sera raised to the C-terminal ˜500 amino-acid residues of the human ATM protein. […] 10 μl of immunoprecipitated ATM in Buffer C (50 mM Hepes, pH 7.4, 6 mM MgCl2, 150 mM NaCl, 0.1 mM sodium orthovanadate, 4 mM MnCl2, 0.1 mM dithiothreitol, 10% glycerol) was added to 32.5 μl of buffer C containing 1 μg of the ATM substrate GSTp53N66 in a V-bottomed 96 well polypropylene plate. The GSTp53N66 substrate is the amino terminal 66 amino acid residues of human wild type p53 fused to glutathione S-transferase. […] Varying concentrations of inhibitor were then added. […] After 10 minutes of incubation at 37° C., the reactions were initiated by the addition of 5 μl of 500 μM Na-ATP. After 1 hour with shaking at 37° C., 150 μl of phosphate buffered saline (PBS) was added to the reaction and the plate centrifuged at 1500 rpm for 10 minutes. 5 μl of the reaction was then transferred to a 96 well opaque white plate containing 45 μl of PBS to allow the GSTp53N66 substrate to bind to the plate wells. The plate was covered and incubated at room temperature for 1 hour with shaking before discarding the contents. The plate wells were washed twice by the addition of PBS prior to the addition of 3% (w/v) bovine serum albumin (BSA) in PBS. The plate was incubated at room temperature for 1 hour with shaking before discarding the contents and washing twice with PBS. To the wells, 50 μl of a 1:10,000 dilution of primary phosphoserine-15 antibody (Cell Signaling Technology, #9284L) in 3% BSA/PBS was added to detect the phosphorylation event on the serine 15 residue of p53 elicited by the ATM kinase. […] The wells were then washed four times with PBS before the addition of chemiluminescence reagent (NEN Renaissance, NEL105). The plate was then shaken briefly, covered with a transparent plate seal and transferred to a TopCount NXT for chemiluminescent counting. Counts per second, following a one second counting time, were recorded for each reaction.
The enzyme activity for each compound is then calculated using the following equation:
[formula] Results In vitro ATM assays
Compounds were assayed for ATM inhibition activity using the method described above. […] These are determined over a range of different concentrations, normally from 100 μM down to 0.1 nM. Such IC50 values are used as comparative values to identify increased compound potencies.

IC50, < 200 nM:
C=CCNS(=O)(=O)c1ccc2c(c1)Cc1cccc(-c3cc(=O)cc(N4CCOCC4)o3)c1S2 [Compound 462]
O=C(CCN1CCOCC1)Nc1ccc2c(c1)Sc1cccc(-c3cc(=O)cc(N4CCOCC4)o3)c1S2 [Compound 91]
O=C(Nc1ccc2c(c1)Sc1cccc(-c3cc(=O)cc(N4CCOCC4)o3)c1S2)c1ccco1 [Compound 29]
CC(=O)N1CCN(S(=O)(=O)c2ccc3c(c2)Cc2cccc(-c4cc(=O)cc(N5CCOCC5)o4)c2S3)CC1 [Compound 476]
O=c1cc(-c2ccc(OCCNN3CCOCC3)c3c2Sc2ccccc2S3)oc(N2CCOCC2)c1 [Compound 153]
CC(=O)OC(C(=O)Nc1ccc2c(c1)Sc1cccc(-c3cc(=O)cc(N4CCOCC4)o3)c1S2)c1ccccc1 (stereo not shown) [Compound 43]
O=C(CN1CCCCCC1)Nc1ccc2c(c1)Sc1cccc(-c3cc(=O)cc(N4CCOCC4)o3)c1S2 [Compound 62]
O=C(Nc1ccc2c(c1)Sc1cccc(-c3cc(=O)cc(N4CCOCC4)o3)c1S2)c1ccc2nsnc2c1 [Compound 45]
CCCNCCOc1ccc2c(c1)Sc1cccc(-c3cc(=O)cc(N4CCOCC4)o3)c1S2 [Compound 383]
O=C(CCNCCN1CCNC1=O)Nc1ccc2c(c1)Sc1cccc(-c3cc(=O)cc(N4CCOCC4)o3)c1S2 [Compound 113]
COc1ccccc1C(=O)Nc1ccc2c(c1)Sc1cccc(-c3cc(=O)cc(N4CCOCC4)o3)c1S2 [Compound 31]
CC1CN(CCCN2c3ccccc3Sc3c(-c4cc(=O)cc(N5CCOCC5)o4)cccc32)CC(C)O1 (stereo not shown) [Compound 257]
O=C(CSc1ncn[nH]1)Nc1ccc2c(c1)Sc1cccc(-c3cc(=O)cc(N4CCOCC4)o3)c1S2 [Compound 65]
O=C(CN1CCN(CCOCCO)CC1)Nc1ccc2c(c1)Cc1cccc(-c3cc(=O)cc(N4CCOCC4)o3)c1S2 [Compound 340]
O=C(CNCCO)Nc1ccc2c(c1)Sc1cccc(-c3cc(=O)cc(N4CCOCC4)o3)c1S2 [Compound 57]
NC(=O)C1CCN(S(=O)(=O)c2ccc3c(c2)Cc2cccc(-c4cc(=O)cc(N5CCOCC5)o4)c2S3)CC1 [Compound 469]
O=c1cc(-c2cccc3c2Sc2ccccc2N3CCCNCC2CCCCC2O)oc(N2CCOCC2)c1 (stereo not shown) [Compound 328]
O=C(COc1ccc2c(c1)Sc1cccc(-c3cc(=O)cc(N4CCOCC4)o3)c1S2)N1CCCC(CO)C1 (stereo not shown) [Compound 418]
CN(C)Cc1ccc(CSCCNCCOc2ccc(-c3cc(=O)cc(N4CCOCC4)o3)c3c2Sc2ccccc2S3)o1 [Compound 170]
O=c1cc(-c2cccc3c2Sc2ccc(S(=O)(=O)NC(CO)CO)cc2C3)oc(N2CCOCC2)c1 [Compound 466]
O=c1cc(-c2cccc3c2Sc2ccc(OCCNCCc4ccccn4)cc2S3)oc(N2CCOCC2)c1 [Compound 381]
CC(C)NC(=O)CN1CCN(CCC(=O)Nc2ccc3c(c2)Sc2cccc(-c4cc(=O)cc(N5CCOCC5)o4)c2S3)CC1 [Compound 123]
O=c1cc(-c2cccc3c2Sc2ccccc2N3CCCNc2nc(-c3ccccc3)ns2)oc(N2CCOCC2)c1 [Compound 330]
CC(=O)N1CCN(CC(=O)Nc2ccc3c(c2)Cc2cccc(-c4cc(=O)cc(N5CCOCC5)o4)c2S3)CC1 [Compound 338]
O=C(c1ccc2c(c1)Sc1cccc(-c3cc(=O)cc(N4CCOCC4)o3)c1S2)N1CCNCC1 [Compound 19]
O=C(CCN1CCN(CCO)CC1)Nc1ccc2c(c1)Sc1cccc(-c3cc(=O)cc(N4CCOCC4)o3)c1S2 [Compound 128]
COCCN1CCN(CC(=O)Nc2ccc3c(c2)Sc2cccc(-c4cc(=O)cc(N5CCOCC5)o4)c2S3)CC1 [Compound 78]
O=c1cc(-c2cccc3c2Sc2ccc(S(=O)(=O)NCC(F)(F)F)cc2C3)oc(N2CCOCC2)c1 [Compound 454]
O=C(CCN1CCN(c2ccc(F)cc2)CC1)Nc1ccc2c(c1)Cc1cccc(-c3cc(=O)cc(N4CCOCC4)o3)c1S2 [Compound 354]
O=c1cc(-c2cccc3c2Sc2ccccc2N3CCCN2CCNCC2)oc(N2CCOCC2)c1 [Compound 303]
CCCNS(=O)(=O)c1ccc2c(c1)Cc1cccc(-c3cc(=O)cc(N4CCOCC4)o3)c1S2 [Compound 458]
CN1CCCN(CC(=O)Nc2ccc3c(c2)Sc2cccc(-c4cc(=O)cc(N5CCOCC5)o4)c2S3)CC1 [Compound 60]
O=C(CN1CCN(c2ccccn2)CC1)Nc1ccc2c(c1)Cc1cccc(-c3cc(=O)cc(N4CCOCC4)o3)c1S2 [Compound 343]
O=c1cc(-c2cccc3c2Sc2ccc(OCCNCc4ccncc4)cc2S3)oc(N2CCOCC2)c1 [Compound 366]
CC(C)CNCCCN1c2ccccc2Sc2c(-c3cc(=O)cc(N4CCOCC4)o3)cccc21 [Compound 242]
O=C(COc1ccc2c(c1)Cc1cccc(-c3cc(=O)cc(N4CCOCC4)o3)c1S2)NCC1CCCO1 (stereo not shown) [Compound 497]
O=C(CCSc1ncn[nH]1)Nc1ccc2c(c1)Sc1cccc(-c3cc(=O)cc(N4CCOCC4)o3)c1S2 [Compound 104]
COCCCNCCCN1c2ccccc2Sc2c(-c3cc(=O)cc(N4CCOCC4)o3)cccc21 [Compound 285]
CN(C)CCC(=O)Nc1ccc2c(c1)Sc1cccc(-c3cc(=O)cc(N4CCOCC4)o3)c1S2 [Compound 108]
C[C@@H]1COC[C@H](C)N1CCCOc1ccc(-c2cc(=O)cc(N3CCOCC3)o2)c2c1Sc1ccccc1S2 [Compound 181]
O=C(COc1ccc2c(c1)Cc1cccc(-c3cc(=O)cc(N4CCOCC4)o3)c1S2)N1CCSCC1 [Compound 510]
O=c1cc(-c2cccc3c2Sc2ccccc2N3CCCN2CCN(c3ccccn3)CC2)oc(N2CCOCC2)c1 [Compound 290]
O=c1cc(-c2cccc3c2Sc2ccc(OCCNCCO)cc2S3)oc(N2CCOCC2)c1 [Compound 367]
O=C(c1ccc2c(c1)Sc1cccc(-c3cc(=O)cc(N4CCOCC4)o3)c1S2)N1CCN(c2ncccn2)CC1 [Compound 13]
O=C(CCCCC1SC[C@@H]2NC(=O)N[C@H]12)NCCCCCC(=O)NCCNCCCN1c2ccccc2Sc2c(-c3cc(=O)cc(N4CCOCC4)o3)cccc21 (stereo partly shown) [Compound 336]
NCCNCC(=O)Nc1ccc2c(c1)Sc1cccc(-c3cc(=O)cc(N4CCOCC4)o3)c1S2 [Compound 58]
COCCN1CCN(C(=O)COc2ccc3c(c2)Sc2cccc(-c4cc(=O)cc(N5CCOCC5)o4)c2S3)CC1 [Compound 435]
O=C(COc1ccc2c(c1)Sc1cccc(-c3cc(=O)cc(N4CCOCC4)o3)c1S2)NC1CCC1 [Compound 405]
CN1CCN(CCOc2ccc3c(c2)Sc2cccc(-c4cc(=O)cc(N5CCOCC5)o4)c2S3)CC1 [Compound 361]
CC(C)(C)OC(=O)N1CCCN(CCCN2c3ccccc3Sc3c(-c4cc(=O)cc(N5CCOCC5)o4)cccc32)CC1 [Compound 333]
O=C(CCN1CCN(CCOCCO)CC1)Nc1ccc2c(c1)Sc1cccc(-c3cc(=O)cc(N4CCOCC4)o3)c1S2 [Compound 117]
CN1CCCN(C(=O)COc2ccc3c(c2)Sc2cccc(-c4cc(=O)cc(N5CCOCC5)o4)c2S3)CC1 [Compound 442]
O=c1cc(-c2cccc3c2Sc2ccccc2N3CCCNC2CCCCC2)oc(N2CCOCC2)c1 [Compound 251]
CN(C)CCN(C)C(=O)COc1ccc2c(c1)Sc1cccc(-c3cc(=O)cc(N4CCOCC4)o3)c1S2 [Compound 434]
O=c1cc(-c2cccc3c2Sc2ccccc2N3CCCNCC2CCCO2)oc(N2CCOCC2)c1 (stereo not shown) [Compound 240]
O=C(CNCc1ccncc1)Nc1ccc2c(c1)Sc1cccc(-c3cc(=O)cc(N4CCOCC4)o3)c1S2 [Compound 71]
COc1ccc(CNCCC(=O)Nc2ccc3c(c2)Sc2cccc(-c4cc(=O)cc(N5CCOCC5)o4)c2S3)cc1 [Compound 103]
O=c1cc(-c2ccc(OCCCNC3CCC3)c3c2Sc2ccccc2S3)oc(N2CCOCC2)c1 [Compound 182]
